Measured values taken from publication PMC6106167, “Small‐Molecule Neuromedin U Receptor 2 Agonists Suppress Food Intake and Decrease Visceral Fat in Animal Models” (Pharmacology Research & Perspectives, 2018).
Where two headings read alike, the source gives them in different places.

Key:
[1] = target: T1, neuromedin U receptor 2 (NMUR2) (Homo sapiens, UniProt Q9GZQ4); assay: GloSensor cAMP inhibition (Gi mode) in hNMUR2 HEK293 cells; no effect in cells lacking NMUR2; FLIPR calcium EC50 […]; format: cell-based; conditions: read-out: Gi/o EC50
T1 construct: human NMUR2 stably expressed in HEK293 cells

[2] = target: T1, neuromedin U receptor 2 (NMUR2); assay: as above; format: cell-based; conditions: read-out: Gi/o EC50; remark: listed apart in the source

T1 sequence (Q9GZQ4 whole entry): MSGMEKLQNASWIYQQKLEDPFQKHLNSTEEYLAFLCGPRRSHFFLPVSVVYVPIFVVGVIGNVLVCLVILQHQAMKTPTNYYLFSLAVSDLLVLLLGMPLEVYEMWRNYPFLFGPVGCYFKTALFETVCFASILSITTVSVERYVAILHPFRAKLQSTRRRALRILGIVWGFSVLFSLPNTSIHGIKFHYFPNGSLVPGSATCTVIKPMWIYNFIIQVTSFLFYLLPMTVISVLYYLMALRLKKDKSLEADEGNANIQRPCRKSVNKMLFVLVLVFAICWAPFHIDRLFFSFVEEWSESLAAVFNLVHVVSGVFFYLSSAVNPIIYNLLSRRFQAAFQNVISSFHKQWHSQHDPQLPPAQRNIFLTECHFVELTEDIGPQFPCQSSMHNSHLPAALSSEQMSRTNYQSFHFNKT

| EC50 [1] [nM] | EC50 [2] [nM] | Structure (SMILES) |
| --- | --- | --- |
| 0.71 | – | N=C(N)NCCCOC(c1ccccc1)(c1ccccc1)c1ccccc1 [NY0128] |
| – | 1.69 | N=C(N)NCCOC(c1ccccc1)(c1ccccc1)c1ccccc1 [NY0116] |
